PubChem BioAssay AID1959 (Broad Institute, 2009)
Activity calls are given as the source filed them.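 The calls were made as follows: active = growth-inhibition EC50 no more than tenfold above the top tested dose; inconclusive = flat fit between 30% and 70% inhibition, or unreliable fit; inactive = EC50 more than tenfold above the top tested dose.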

System: E. coli NEB5alpha growth, BacTiter-Glo luminescence, 4 h
Assay: antibacterial activity against E. coli NEB5alpha – luminescence, counter-screen for MEX-5/POS-1 RNA-binding inhibitor project, dose response (AID 1959);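 also: pUC19-transformed ampicillin-resistant cells grown in LB with ampicillin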

How did the EC50 turn out when CCOc1cc(C2C(C#N)=C(N)OC(C)=C2C(C)=O)cc(Br)c1O (stereo not drawn) was run?
Its EC50 is > 11 µM (inactive).

How did the EC50 turn out when O=C(O)Cc1ccc(O)c(O)c1 was run?
The EC50 was > 11 µM (inactive).

With O=C(O)Cn1cc(/C=C2\C(=O)NC(=O)N(c3ccc(F)cc3)C2=O)c2ccccc21 as the molecule, how does the EC50 read?
The EC50 was > 11 µM (inactive).

Which EC50 does the source give for O=C(O)CCC(=O)NNc1nc(-c2ccccc2)c2cc(Cl)ccc2n1 here?
The EC50 was > 11 µM (inactive).

With COc1ccc(C2C(C#N)=C(N)OC3=C2C(=O)CC(C)(C)C3)c([N+](=O)[O-])c1OC (stereo not drawn) as the molecule, how does the EC50 read?
Its EC50 is > 11 µM (inactive).

C=CCn1c(O)c(/C=C/C=Nc2ccccc2)c(=O)[nH]c1=O was tested. Which EC50 did it give?
Its EC50 is > 11 µM (inactive).

With CC1=CC(=C2N=C(c3ccccc3)OC2=O)C=C(C)O1 as the molecule, how does the EC50 read?
Its EC50 is > 11 µM (inactive).

How did the EC50 turn out when O=C(O)CCC(=O)NCc1ccc2[nH]c3c(c2c1)CCCC3 was run?
The EC50 was > 11 µM (inactive).

COc1ccc(C(=O)c2sc3nc(C)cc(-c4cccs4)c3c2N)cc1OC was tested. Which EC50 did it give?
Its EC50 is > 11 µM (inactive).

Which EC50 does the source give for CC1=Nc2ccccc2/C1=C\c1nc(-c2ccc(F)cc2)oc1O here?
The EC50 was > 11 µM (inactive).

How did the EC50 turn out when COc1ccc(OC)c(N=Cc2c(O)n(Cc3ccccc3)c(=S)[nH]c2=O)c1 was run?
The EC50 was > 11 µM (inactive).

Cn1c(O)c(/C=C2/C=CC=N2)c(=O)[nH]c1=O was tested. Which EC50 did it give?
The EC50 was > 11 µM (inactive).

CC(=O)NCCNc1ccc([N+](=O)[O-])cc1C#N was tested. Which EC50 did it give?
The EC50 was > 11 µM (inactive).

CCCN1CCc2cc(O)cc3c2[C@H]1Cc1ccc(O)c(O)c1-3 was tested. Which EC50 did it give?
The EC50 was > 11 µM (inactive).

COC(=O)c1ccc(-n2c(CCC(=O)O)ccc2-c2ccccc2)cc1 was tested. Which EC50 did it give?
The EC50 was > 11 µM (inactive).

Which EC50 does the source give for CCOC(=O)c1cc(=O)n2nc(-c3ccc(C)cc3)nc2s1 here?
Its EC50 is > 11 µM (inactive).

CCOc1cc(/C=C2/C(=O)ON=C2C)ccc1OCc1ccccc1F was tested. Which EC50 did it give?
Its EC50 is > 11 µM (inactive).

Which EC50 does the source give for Oc1[nH]c2ccccc2c1N=Nc1ccc(F)cc1 here?
Its EC50 is > 11 µM (inactive).

How did the EC50 turn out when CCC(=O)OC1(C)C(=O)C=C2C=C(CCCC(=O)OC)OC=C2C1=O (stereo not drawn) was run?
Its EC50 is > 11 µM (inactive).

How did the EC50 turn out when Cc1ccc2sc(NNC(=O)c3cc(=O)c4ccccc4o3)nc2c1C was run?
The EC50 was > 11 µM (inactive).

With O=c1[nH]c(=O)n(-c2ccc(Br)cc2)c(O)c1C=NCCN1CCCCC1 as the molecule, how does the EC50 read?
The EC50 was > 11 µM (inactive).

With C=CCSc1nnc(N2C(=O)C(O)=C(C(=O)c3ccco3)C2c2ccc(F)cc2)s1 (stereo not drawn) as the molecule, how does the EC50 read?
Its EC50 is > 11 µM (inactive).

With Cc1nn(C(C)C(=O)N2CCOCC2)c(=O)c2nn(-c3ccccc3)c(C)c12 (stereo not drawn) as the molecule, how does the EC50 read?
The EC50 was > 11 µM (inactive).

CCOC(=O)c1c(NC(=O)CC2Nc3ccccc3NC2=O)sc(C)c1C (stereo not drawn) was tested. Which EC50 did it give?
The EC50 was > 11 µM (inactive).

Cc1nc(S/C(=C/c2ccc(-c3ccc(Cl)cc3)o2)C(=O)O)n[nH]1 was tested. Which EC50 did it give?
Its EC50 is > 11 µM (inactive).

For COc1cccc(OCCCn2cc(/C=C3/C(=N)N4C=C(C)SC4=NC3=O)c3ccccc32)c1, which EC50 is on record?
Its EC50 is > 11 µM (inactive).

With O=C1OCc2cc(-n3cccc3)ccc21 as the molecule, how does the EC50 read?
Its EC50 is > 11 µM (inactive).

How did the EC50 turn out when O=C(/C=C/c1ccc([N+](=O)[O-])s1)N1CCCC1 was run?
Its EC50 is > 11 µM (inactive).

Which EC50 does the source give for Cc1ccc(NCC(=O)N/N=C/c2ccc(C(=O)O)cc2)cc1 here?
The EC50 was > 11 µM (inactive).

With CC(C)OC(=O)CC(=O)c1sc2nc3c(cc2c1N)CN(C)CC3 as the molecule, how does the EC50 read?
The EC50 was > 11 µM (inactive).

Which EC50 does the source give for Cc1cc(/C=C2\C(=O)NC(=O)N(c3ccc(Br)cc3)C2=O)c(C)n1-c1cc(C(=O)O)cc(C(=O)O)c1 here?
Its EC50 is > 11 µM (inactive).

With O=C(O)CCN1C(=O)/C(=C/c2ccc(-c3nc4ccccc4s3)o2)SC1=S as the molecule, how does the EC50 read?
Its EC50 is > 11 µM (inactive).

How did the EC50 turn out when O=c1[nH]c(=O)n(CCc2ccc(F)cc2)c(O)c1C=NCCCn1ccnc1 was run?
The EC50 was > 11 µM (inactive).

CC(Cc1ccc(O)c(O)c1)C(C)Cc1ccc(O)c(O)c1 (stereo not drawn) was tested. Which EC50 did it give?
The EC50 was > 11 µM (inactive).

How did the EC50 turn out when Cc1ccc([N+](=O)[O-])cc1S(=O)(=O)Nc1ccc(O)c(Sc2ncn[nH]2)c1 was run?
Its EC50 is > 11 µM (inactive).

COc1ccc(C2C(C#N)=C(/N=C/N3CCOCC3)OC3=C2C(=O)CC(C)(C)C3)cc1OC (stereo not drawn) was tested. Which EC50 did it give?
Its EC50 is > 11 µM (inactive).

With CC(=O)Nc1ccc(N/C=C/C(=O)c2ccc(C)o2)cc1 as the molecule, how does the EC50 read?
Its EC50 is > 11 µM (inactive).

How did the EC50 turn out when Cc1cc(/C=c2\sc3nc4ccccc4n3c2=O)c(C)n1-c1ccc(C(=O)O)cc1 was run?
The EC50 was > 11 µM (inactive).
